# Legend:
# [1] = tested on: AGS; assay: Cytotoxicity against human AGS cells after 48 hrs by MTT assay; type: functional, cell-based
# [2] = tested on: Radical scavenging activity; assay: Antioxidant activity assessed as DPPH radical scavenging activity; type: functional
# [3] = Antioxidant activity assessed as ABTS radical scavenging activity after 30 mins by spectrophotometry; type: functional
# [4] = Antioxidant activity assessed as hydroxyl radical scavenging activity after 15 mins by spectrophotometry; type: functional
# [5] = tested on: HCT-116; assay: Cytotoxicity against human HCT116 cells after 48 hrs by MTT assay; type: functional, cell-based; details: HCT-116, 48 h
# [6] = Antioxidant activity assessed as superoxide anion radical scavenging activity after 90 seconds by formazan method; type: functional
# [7] = tested on: HeLa; assay: Cytotoxicity against human HeLa cells after 48 hrs by MTT assay; type: functional, cell-based
Compound,IC50 [2],IC50 [3],IC50 [4],IC50 [6],IC50 [1],IC50 [5],IC50 [7]
COc1ccc(-c2c3ccc4ccccc4c3nc3c2c(C)nc2c4ccccc4ccc32)cc1,27.5 µg/mL,132.5 µg/mL,82.3 µg/mL,176.4 µg/mL,66.4 µM,> 80 µM,45.9 µM
Cc1cc(Nc2cccc3ccccc23)c2ccc3ccccc3c2n1,18.2 µg/mL,115.2 µg/mL,62.3 µg/mL,186.2 µg/mL,4.01 µM,5.61 µM,3.45 µM
Cc1nc2c3ccccc3ccc2c2nc3c(ccc4ccccc43)c(C)c12,46.6 µg/mL,128.5 µg/mL,89.6 µg/mL,194.5 µg/mL,> 80 µM,> 80 µM,> 80 µM
COc1cccc2c1C(=O)c1c(O)c3c(c(O)c1C2=O)C[C@@](O)(C(=O)CO)C[C@@H]3O[C@H]1C[C@H](N)[C@H](O)[C@H](C)O1 [DOXORUBICIN],,,,,10.9 µM,8.7 µM,6.3 µM
Cc1ccc(-c2c3ccc4ccccc4c3nc3c2c(C)nc2c4ccccc4ccc32)cc1,24.5 µg/mL,123.3 µg/mL,68.7 µg/mL,191.5 µg/mL,> 80 µM,67 µM,72.2 µM
COc1ccc(O)c(C(C)(C)C)c1.COc1ccc(O)cc1C(C)(C)C [BUTYLATED HYDROXYANISOLE],9.7 µg/mL,96.8 µg/mL,75.7 µg/mL,79.6 µg/mL,,,
Cc1nc2c3ccccc3ccc2c2nc3c(ccc4ccccc43)c(-c3cccc([N+](=O)[O-])c3)c12,33.3 µg/mL,116.8 µg/mL,54.2 µg/mL,157.3 µg/mL,25.5 µM,13.2 µM,50.7 µM
Cc1nc2c3ccccc3ccc2c2nc3c(ccc4ccccc43)c(-c3nccnc3N)c12,12 µg/mL,81.7 µg/mL,47.8 µg/mL,133.9 µg/mL,2.26 µM,3.56 µM,1.21 µM

# The next lines start with results.
IC50 [2],IC50 [3],IC50 [4],IC50 [6],Compound,IC50 [1],IC50 [5],IC50 [7]
16.9 µg/mL,98.2 µg/mL,63.6 µg/mL,156.1 µg/mL,Cc1nc2c3ccccc3ccc2c2nc3c(ccc4ccccc43)c(-c3cccnc3)c12,3.96 µM,34.2 µM,3.86 µM
10.4 µg/mL,86.4 µg/mL,44.1 µg/mL,99 µg/mL,Cc1nc2c3ccccc3ccc2c2nc3c(ccc4ccccc43)c(-c3ccc(O)cc3)c12,14.2 µM,3.19 µM,4.63 µM
14.1 µg/mL,92.1 µg/mL,44.8 µg/mL,147.7 µg/mL,Cc1nc2c3ccccc3ccc2c2nc3c(ccc4ccccc43)c(-c3cc(O)nc4ccccc34)c12,15.8 µM,4.63 µM,4.88 µM
10.2 µg/mL,89 µg/mL,49.6 µg/mL,158.3 µg/mL,Cc1nc2c3ccccc3ccc2c2nc3c(ccc4ccccc43)c(-c3ccccc3S)c12,4.07 µM,1.42 µM,3.19 µM
11.3 µg/mL,93.1 µg/mL,43.3 µg/mL,110.1 µg/mL,Cc1nc2c3ccccc3ccc2c2nc3c(ccc4ccccc43)c(-c3cc([N+](=O)[O-])ccc3N)c12,17.8 µM,6.01 µM,5.77 µM
31.3 µg/mL,164.3 µg/mL,84.6 µg/mL,188.1 µg/mL,Cc1nc2c3ccccc3ccc2c2nc3c(ccc4ccccc43)c(-c3ccccc3)c12,> 80 µM,> 80 µM,> 80 µM
43 µg/mL,118.1 µg/mL,74.6 µg/mL,170 µg/mL,Cc1nc2c3ccccc3ccc2c2nc3c(ccc4ccccc43)c(-c3ccccc3Cl)c12,52.5 µM,48.2 µM,> 80 µM
17.5 µg/mL,95.4 µg/mL,45.6 µg/mL,124.6 µg/mL,Cc1nc2c3ccccc3ccc2c2nc3c(ccc4ccccc43)c(-c3ccccc3N)c12,12.1 µM,4.76 µM,16.2 µM
26.1 µg/mL,110.5 µg/mL,64.3 µg/mL,179.3 µg/mL,Cc1nc2c3ccccc3ccc2c2nc3c(ccc4ccccc43)c(-c3cccc4ccccc34)c12,12.1 µM,20.8 µM,14.9 µM
